Assay results as given in patent US8158372B2, “Agonists of a bitter taste receptor and uses thereof” (Deutsches Institut für Ernährungsforschung Potsdam-Rehbrücke, priority 2004, dated 2012).
Where a name gives a salt, the structure may show the parent alone. Read-outs that look alike come from different tables or passages of the source.

How the values were obtained:
[1] = molecular target: T1, hTAS2R14 (Homo sapiens, UniProt Q9NYV8)
T1 sequence (Q9NYV8 1-317): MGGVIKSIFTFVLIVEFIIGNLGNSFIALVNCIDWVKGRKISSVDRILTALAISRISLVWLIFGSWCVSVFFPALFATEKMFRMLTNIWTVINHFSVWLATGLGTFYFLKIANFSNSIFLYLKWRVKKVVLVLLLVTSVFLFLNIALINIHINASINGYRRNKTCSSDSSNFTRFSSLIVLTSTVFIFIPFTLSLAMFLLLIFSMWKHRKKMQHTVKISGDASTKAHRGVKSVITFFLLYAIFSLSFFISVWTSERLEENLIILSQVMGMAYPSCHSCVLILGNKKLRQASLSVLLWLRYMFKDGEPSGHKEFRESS

[2] = molecular target: T2, hTAS2R4 (Homo sapiens, UniProt Q9NYW5); conditions: denatonium at high doses; Chandrashekar et al. 2000; cited from earlier work
T2 sequence (Q9NYW5 1-299): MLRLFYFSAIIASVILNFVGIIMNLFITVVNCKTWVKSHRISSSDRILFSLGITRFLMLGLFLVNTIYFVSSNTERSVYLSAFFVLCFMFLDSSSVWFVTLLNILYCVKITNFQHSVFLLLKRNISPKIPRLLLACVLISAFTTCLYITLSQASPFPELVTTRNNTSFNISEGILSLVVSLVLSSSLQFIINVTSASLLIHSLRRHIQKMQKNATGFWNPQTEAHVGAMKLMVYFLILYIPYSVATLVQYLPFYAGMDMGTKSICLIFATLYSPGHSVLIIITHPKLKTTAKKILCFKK

[3] = molecular target: T3, mTAS2R5 (Mus musculus, UniProt Q9JKT4); conditions: Chandrashekar et al. 2000; cited from earlier work
T3 sequence (Q9JKT4 1-300): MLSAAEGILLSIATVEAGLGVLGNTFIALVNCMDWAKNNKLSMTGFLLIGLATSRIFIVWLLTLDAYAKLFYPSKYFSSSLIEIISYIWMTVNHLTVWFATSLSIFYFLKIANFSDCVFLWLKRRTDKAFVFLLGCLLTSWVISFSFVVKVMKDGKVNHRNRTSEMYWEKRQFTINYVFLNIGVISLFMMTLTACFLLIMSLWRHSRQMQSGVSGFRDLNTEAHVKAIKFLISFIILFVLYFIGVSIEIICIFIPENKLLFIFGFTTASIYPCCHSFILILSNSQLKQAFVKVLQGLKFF

[4] = molecular target: T4, rTAS2R9 (Rattus norvegicus, UniProt Q9JKT5); conditions: Bufe et al. 2002; cited from earlier work
T4 sequence (Q9JKT5 1-309): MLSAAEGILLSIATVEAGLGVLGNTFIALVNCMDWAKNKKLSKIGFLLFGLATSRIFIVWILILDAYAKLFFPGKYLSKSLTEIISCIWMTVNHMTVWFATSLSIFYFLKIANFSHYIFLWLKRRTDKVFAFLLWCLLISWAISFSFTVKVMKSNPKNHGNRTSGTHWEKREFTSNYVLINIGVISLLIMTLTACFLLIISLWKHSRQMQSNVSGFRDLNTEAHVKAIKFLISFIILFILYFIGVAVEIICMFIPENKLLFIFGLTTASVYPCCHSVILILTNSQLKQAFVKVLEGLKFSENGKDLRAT

[5] = molecular target: T5, mTAS2R8 (Mus musculus, UniProt Q9JKT3); conditions: denatonium at high doses; Chandrashekar et al. 2000; cited from earlier work
T5 sequence (Q9JKT3 1-297): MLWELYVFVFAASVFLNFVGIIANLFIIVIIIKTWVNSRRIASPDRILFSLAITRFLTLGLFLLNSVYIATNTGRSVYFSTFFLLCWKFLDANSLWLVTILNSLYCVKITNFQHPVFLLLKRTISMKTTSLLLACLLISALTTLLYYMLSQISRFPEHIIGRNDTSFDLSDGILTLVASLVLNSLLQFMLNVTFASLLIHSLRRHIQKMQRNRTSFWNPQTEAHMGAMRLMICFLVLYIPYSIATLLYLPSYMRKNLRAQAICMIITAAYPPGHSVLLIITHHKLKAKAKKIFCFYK

[6] = increase of intracellular calcium (fluorescence) in hTAS2R14 transfected cells, traces only shown as drawings, Table 1 A

## CN1CCCC1c1cccnc1 (single isomer, unassigned; (-)) [(−)-nicotine]
[1]; conc 10 μM
  response: n.r.

## C1CCN2C[C@H]3CC(CN4CCCC[C@@H]34)[C@H]2C1 (single isomer, unassigned; (-)) [(−)-sparteine]
[1]
  response: n.r.

## O=Cc1cccc2cccc(C(=O)O)c12 [1,8-naphthaldehydic acid]
[1]; [6]
  activation of hTAS2R14 (agonist): agonist

## O=C(O)c1cccc2ccccc12 [1-naphthoic acid]
[1]; [6]
  activation of hTAS2R14 (agonist): agonist

## O=[N+]([O-])c1cccc2ccccc12 [1-nitronaphthalene]
[1]
  activation of hTAS2R14 (agonist): agonist

## CCCc1cc(=O)[nH]c(=S)[nH]1 [6-propyl-2-thiouracil (PROP), 6-propyl-2-thiouracil]
[1]; conc 100 μM
  response: n.r.
[2]
  receptor response: to a lesser extend

## c1ccc2c(c1)CCc1ccccc1-2 [9,10-dihydrophenanthrene]
[1]; conc 5 μM
  response: n.r.

## N[C@H](Cc1ccccc1)C(=O)O [D-phenylalanine]
[1]; conc 10000 μM
  response: n.r.

## N[C@@H](Cc1ccccc1)C(=O)O [L-phenylalanine]
[1]; conc 10000 μM
  response: n.r.

## CCN(CCCc1ccccc1)CCCc1ccccc1.O=C(O)CC(O)(CC(=O)O)C(=O)O [alverine citrate salt]
[1]; conc 50 μM
  response: n.r.

## Cc1cc(=O)n(-c2ccccc2)n1C [antipyrine]
[1]
  response: n.r.

## CN1C2CCC1CC(OC(=O)C(CO)c1ccccc1)C2 (stereo not drawn) [atropine]
[1]
  response: n.r.

## O=C(c1ccccc1)C(O)c1ccccc1 (stereo not drawn) [benzoin]
[1]
  response: n.r.

## O=C(O)/C=C/c1ccc(O)c(O)c1 [caffeic acid]
[1]; conc 30 μM
  response: n.r.

## Cn1c(=O)c2c(ncn2C)n(C)c1=O [caffeine]
[1]; conc 3000 μM
  response: n.r.

## CCCC(C)(COC(N)=O)COC(=O)NC(C)C (stereo not drawn) [carisoprodol]
[1]
  response: n.r.

## O=C(N[C@H](CO)[C@H](O)c1ccc([N+](=O)[O-])cc1)C(Cl)Cl [chloramphenicol]
[1]; conc 30 μM
  response: n.r.

## COc1cc2c(c(OC)c1OC)-c1ccc(OC)c(=O)cc1[C@@H](NC(C)=O)CC2 [colchicine]
[1]
  response: n.r.

## O=C([O-])c1cc(=O)c2c(OCC(O)COc3cccc4oc(C(=O)[O-])cc(=O)c34)cccc2o1.[Na+].[Na+] [cromolyn sodium salt]
[1]; conc 5000 μM
  response: n.r.

## C[C@@H]1C[C@@H]([C@H](O)CC2CC(=O)NC(=O)C2)C(=O)[C@@H](C)C1 [cycloheximide]
[1]
  response: n.r.
[3]
  receptor response: respond
[4]
  receptor response: respond

## CC[N+](CC)(CC(=O)Nc1c(C)cccc1C)Cc1ccccc1 [denatonium]
[5]
  receptor response: respond
[2]
  receptor response: respond

## CC(=O)OC1C[C@H]2[C@H](C)C(=O)O[C@@H]2/C=C(\C)CC/C=C/1C (stereo partly drawn) [herbolide A]
[1]; [6]
  activation of hTAS2R14 (agonist): agonist

## C=C1C(OC(C)=O)CC/C(C)=C/[C@H]2OC(=O)[C@@H](C)[C@@H]2CC1OC(C)=O (stereo partly drawn) [herbolide D acetate]
[1]; [6]
  activation of hTAS2R14 (agonist): agonist

## C=C1C(=O)OC2C3O[C@]3(C)CC/C=C(\C)CC(O)[C@@H]12 (stereo partly drawn) [hydroxy-8α-parthenolide]
[1]; [6]
  activation of hTAS2R14 (agonist): agonist

## C=C1C(=O)O[C@H]2[C@H]1CC/C(C)=C/CC[C@@]1(C)O[C@@H]21 [parthenolide]
[1]; [6]
  activation of hTAS2R14 (agonist): agonist

## NC(=S)Nc1ccccc1 [phenylthiocarbamide (PTC), phenylthiocarbamide]
[1]
  response: n.r.

## CC(C)(O)[C@@H]1[C@H]2OC(=O)[C@@H]1[C@]1(O)C[C@H]3O[C@]34C(=O)O[C@H]2[C@]14C [picrotin]
[1]
  activation of hTAS2R14 (agonist): agonist

## C=C(C)[C@@H]1[C@H]2OC(=O)[C@@H]1[C@]1(O)C[C@H]3O[C@]34C(=O)O[C@H]2[C@]14C [picrotoxinin]
[1]
  activation of hTAS2R14 (agonist): agonist

## O=C(O)c1ccc2c(c1)OCO2 [piperonylic acid]
[1]
  activation of hTAS2R14 (agonist): agonist

## CC1CCC2[C@@H]1C1CC(O)[C@H](C)C1CC[C@@]2(C)O (stereo partly drawn) [pseudo-artabsine]
[1]; [6]
  activation of hTAS2R14 (agonist): agonist

## C=C[C@H]1CN2CC[C@H]1C[C@H]2[C@H](O)c1ccnc2ccc(OC)cc12 [quinine sulfate dihydrate]
[1]; conc 50 μM
  response: n.r.

## O=C([O-])c1ccccc1.[Na+] [sodium benzoate]
[1]
  activation of hTAS2R14 (agonist): agonist

## (−)-α-thujone
[1]
  activation of hTAS2R14 (agonist): agonist

## ouabain
[1]
  response: n.r.

## strychnine nitrate
[1]
  response: n.r.
